Experimental data as given in ChEMBL document CHEMBL4507303, “Data for DCP probe TP-004” (2021).

Key:
[1] = test system: Tyrosine-protein kinase ABL1 (Homo sapiens), P00519 [Y253F]; details: Compound concentration 1000.0 nM
[2] = target: RAC-alpha serine/threonine-protein kinase (Homo sapiens) (UniProt P31749); details: Compound concentration 1000.0 nM
[3] = target: Bone morphogenetic protein receptor type-1B (Homo sapiens) (UniProt O00238); details: Compound concentration 1000.0 nM
[4] = target: Bone morphogenetic protein receptor type-2 (Homo sapiens) (UniProt Q13873); details: Compound concentration 1000.0 nM
[5] = target: Calcium/calmodulin-dependent protein kinase type 1 (Homo sapiens) (UniProt Q14012); details: Compound concentration 1000.0 nM
[6] = target: Cyclin-dependent kinase 3 (Homo sapiens) (UniProt Q00526); details: Compound concentration 1000.0 nM
Chain of Cyclin-dependent kinase 3 (Homo sapiens) (Q00526 whole entry, looked up): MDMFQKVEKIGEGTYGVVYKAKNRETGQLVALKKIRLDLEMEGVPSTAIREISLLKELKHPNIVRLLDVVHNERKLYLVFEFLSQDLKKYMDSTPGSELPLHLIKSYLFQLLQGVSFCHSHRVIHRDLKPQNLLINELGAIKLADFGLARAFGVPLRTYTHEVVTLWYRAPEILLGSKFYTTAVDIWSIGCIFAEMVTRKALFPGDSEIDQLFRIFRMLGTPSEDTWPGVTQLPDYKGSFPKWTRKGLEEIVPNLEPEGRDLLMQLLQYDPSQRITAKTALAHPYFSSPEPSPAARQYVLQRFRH

[7] = target: Cyclin-dependent kinase 5 (Homo sapiens) (UniProt Q00535); details: Compound concentration 1000.0 nM
[8] = target: Dual specificity protein kinase CLK1 (Homo sapiens) (UniProt P49759); details: Compound concentration 1000.0 nM
[9] = test system: Epidermal growth factor receptor (Homo sapiens), P00533 [L861Q]; details: Compound concentration 1000.0 nM
[10] = target: Ephrin type-A receptor 1 (Homo sapiens) (UniProt P21709); details: Compound concentration 1000.0 nM
Chain of Ephrin type-A receptor 1 (Homo sapiens) (P21709 whole entry): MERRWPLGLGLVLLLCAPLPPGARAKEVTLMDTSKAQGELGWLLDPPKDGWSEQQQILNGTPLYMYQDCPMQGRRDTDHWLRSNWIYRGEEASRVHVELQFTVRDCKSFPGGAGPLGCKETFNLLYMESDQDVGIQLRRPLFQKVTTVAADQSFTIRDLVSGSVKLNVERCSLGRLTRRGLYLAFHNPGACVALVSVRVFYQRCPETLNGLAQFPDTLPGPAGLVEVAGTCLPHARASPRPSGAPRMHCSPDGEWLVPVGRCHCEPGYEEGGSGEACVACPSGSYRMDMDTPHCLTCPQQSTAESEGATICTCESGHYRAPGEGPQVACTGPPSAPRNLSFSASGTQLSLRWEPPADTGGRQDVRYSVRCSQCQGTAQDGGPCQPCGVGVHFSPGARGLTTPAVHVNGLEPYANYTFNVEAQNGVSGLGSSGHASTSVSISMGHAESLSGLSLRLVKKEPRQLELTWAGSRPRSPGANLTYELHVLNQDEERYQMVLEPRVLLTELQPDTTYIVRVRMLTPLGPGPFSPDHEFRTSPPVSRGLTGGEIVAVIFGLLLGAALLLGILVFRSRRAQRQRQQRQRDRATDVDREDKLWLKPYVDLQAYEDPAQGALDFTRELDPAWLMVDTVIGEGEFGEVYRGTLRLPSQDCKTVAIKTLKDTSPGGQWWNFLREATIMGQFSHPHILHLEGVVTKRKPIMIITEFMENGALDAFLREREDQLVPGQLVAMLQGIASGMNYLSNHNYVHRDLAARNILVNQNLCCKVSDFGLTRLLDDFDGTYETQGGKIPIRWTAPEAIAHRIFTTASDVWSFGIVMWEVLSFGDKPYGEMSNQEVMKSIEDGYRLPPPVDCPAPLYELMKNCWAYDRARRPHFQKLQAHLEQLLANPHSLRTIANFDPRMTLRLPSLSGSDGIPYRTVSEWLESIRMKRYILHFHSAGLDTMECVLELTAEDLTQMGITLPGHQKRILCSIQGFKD

[11] = target: Mitogen-activated protein kinase 4 (Homo sapiens) (UniProt P31152); details: Compound concentration 1000.0 nM
Chain of Mitogen-activated protein kinase 4 (Homo sapiens) (P31152 whole entry): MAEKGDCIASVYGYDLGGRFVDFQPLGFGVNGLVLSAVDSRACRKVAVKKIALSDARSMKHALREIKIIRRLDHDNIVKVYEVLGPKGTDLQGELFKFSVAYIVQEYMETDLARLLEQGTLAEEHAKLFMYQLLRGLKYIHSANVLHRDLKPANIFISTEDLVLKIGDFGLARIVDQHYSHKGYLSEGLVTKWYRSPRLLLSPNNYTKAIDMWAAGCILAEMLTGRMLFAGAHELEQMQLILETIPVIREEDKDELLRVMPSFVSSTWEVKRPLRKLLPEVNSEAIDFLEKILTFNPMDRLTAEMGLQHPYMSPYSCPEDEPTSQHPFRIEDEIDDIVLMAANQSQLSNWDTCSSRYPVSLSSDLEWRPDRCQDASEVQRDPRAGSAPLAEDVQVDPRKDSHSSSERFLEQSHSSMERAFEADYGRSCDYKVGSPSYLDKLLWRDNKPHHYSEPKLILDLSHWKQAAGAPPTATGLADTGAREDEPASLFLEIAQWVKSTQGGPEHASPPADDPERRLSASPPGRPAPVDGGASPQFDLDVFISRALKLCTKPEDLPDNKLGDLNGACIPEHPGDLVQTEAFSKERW

[12] = target: Mitogen-activated protein kinase 15 (Homo sapiens) (UniProt Q8TD08); details: Compound concentration 1000.0 nM
[13] = test system: Receptor-type tyrosine-protein kinase FLT3 (Homo sapiens), P36888 [UNDEFINED MUTATION]; details: Compound concentration 1000.0 nM
Chain of Receptor-type tyrosine-protein kinase FLT3 (Homo sapiens), P36888 [UNDEFINED MUTATION] (P36888 whole entry, looked up, change not shown): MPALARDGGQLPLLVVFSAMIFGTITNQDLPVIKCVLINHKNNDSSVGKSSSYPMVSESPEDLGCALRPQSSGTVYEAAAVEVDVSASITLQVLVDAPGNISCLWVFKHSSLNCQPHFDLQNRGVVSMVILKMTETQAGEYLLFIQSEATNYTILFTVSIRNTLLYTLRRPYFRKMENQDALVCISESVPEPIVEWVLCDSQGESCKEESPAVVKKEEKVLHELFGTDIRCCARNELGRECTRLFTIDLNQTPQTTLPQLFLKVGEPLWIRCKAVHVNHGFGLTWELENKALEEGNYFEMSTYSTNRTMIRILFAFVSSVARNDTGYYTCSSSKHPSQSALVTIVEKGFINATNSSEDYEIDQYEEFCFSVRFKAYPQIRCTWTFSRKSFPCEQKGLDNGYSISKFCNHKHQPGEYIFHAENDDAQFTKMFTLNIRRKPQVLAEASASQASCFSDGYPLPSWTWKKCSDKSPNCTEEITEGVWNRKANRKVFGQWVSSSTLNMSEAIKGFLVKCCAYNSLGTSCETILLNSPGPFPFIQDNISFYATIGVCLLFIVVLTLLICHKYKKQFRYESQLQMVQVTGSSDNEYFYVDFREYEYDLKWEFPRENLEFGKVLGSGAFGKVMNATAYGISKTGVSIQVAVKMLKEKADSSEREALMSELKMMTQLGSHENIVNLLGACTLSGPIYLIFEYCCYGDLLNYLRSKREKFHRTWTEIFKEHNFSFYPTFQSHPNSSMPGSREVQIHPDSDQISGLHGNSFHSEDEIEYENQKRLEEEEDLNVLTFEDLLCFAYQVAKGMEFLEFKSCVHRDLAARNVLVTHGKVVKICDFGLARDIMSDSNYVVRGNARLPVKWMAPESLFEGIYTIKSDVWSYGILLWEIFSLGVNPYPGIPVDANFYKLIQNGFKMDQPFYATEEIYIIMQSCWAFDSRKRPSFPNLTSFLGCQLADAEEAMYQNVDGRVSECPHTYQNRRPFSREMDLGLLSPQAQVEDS

[14] = test system: Receptor-type tyrosine-protein kinase FLT3 (Homo sapiens), P36888 [UNDEFINED MUTATION]; details: Compound concentration 1000.0 nM; remark: listed apart in the source
[15] = target: Glycogen synthase kinase-3 alpha (Homo sapiens) (UniProt P49840); details: Compound concentration 1000.0 nM
[16] = target: Mitogen-activated protein kinase 9 (Homo sapiens) (UniProt P45984); details: Compound concentration 1000.0 nM
[17] = target: Mitogen-activated protein kinase 10 (Homo sapiens) (UniProt P53779); details: Compound concentration 1000.0 nM
[18] = target: Serine/threonine-protein kinase LATS2 (Homo sapiens) (UniProt Q9NRM7); details: Compound concentration 1000.0 nM
[19] = target: Tyrosine-protein kinase Lyn (Homo sapiens) (UniProt P07948); details: Compound concentration 1000.0 nM
[20] = target: Mitogen-activated protein kinase kinase kinase kinase 5 (Homo sapiens) (UniProt Q9Y4K4); details: Compound concentration 1000.0 nM
[21] = target: Serine/threonine-protein kinase MARK1 (Homo sapiens) (UniProt Q9P0L2); details: Compound concentration 1000.0 nM
Chain of Serine/threonine-protein kinase MARK1 (Homo sapiens) (Q9P0L2 whole entry, looked up): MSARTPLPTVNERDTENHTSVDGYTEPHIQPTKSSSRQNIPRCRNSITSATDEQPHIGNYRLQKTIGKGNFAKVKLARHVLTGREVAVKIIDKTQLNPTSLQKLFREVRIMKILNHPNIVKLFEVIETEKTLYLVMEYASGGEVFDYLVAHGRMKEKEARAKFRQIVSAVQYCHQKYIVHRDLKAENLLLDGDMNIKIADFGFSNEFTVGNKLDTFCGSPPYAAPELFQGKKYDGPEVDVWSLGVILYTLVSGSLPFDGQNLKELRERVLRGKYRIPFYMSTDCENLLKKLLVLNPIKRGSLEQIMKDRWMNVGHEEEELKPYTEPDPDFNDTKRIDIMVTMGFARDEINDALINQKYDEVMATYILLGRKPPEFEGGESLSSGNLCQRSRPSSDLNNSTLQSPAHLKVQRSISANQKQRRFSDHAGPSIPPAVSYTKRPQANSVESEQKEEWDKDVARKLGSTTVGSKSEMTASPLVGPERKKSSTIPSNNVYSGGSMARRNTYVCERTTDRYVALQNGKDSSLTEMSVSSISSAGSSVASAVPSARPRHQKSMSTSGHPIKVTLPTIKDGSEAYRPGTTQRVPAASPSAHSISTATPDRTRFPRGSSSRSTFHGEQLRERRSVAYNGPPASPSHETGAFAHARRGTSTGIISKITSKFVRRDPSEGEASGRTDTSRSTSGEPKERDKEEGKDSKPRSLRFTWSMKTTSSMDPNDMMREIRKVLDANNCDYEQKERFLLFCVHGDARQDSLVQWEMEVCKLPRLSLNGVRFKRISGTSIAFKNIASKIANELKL

[22] = target: Dual specificity mitogen-activated protein kinase kinase 2 (Homo sapiens) (UniProt P36507); details: Compound concentration 1000.0 nM
[23] = target: Tyrosine-protein kinase Mer (Homo sapiens) (UniProt Q12866); details: Compound concentration 1000.0 nM
[24] = target: Muscle, skeletal receptor tyrosine-protein kinase (Homo sapiens) (UniProt O15146); details: Compound concentration 1000.0 nM
[25] = target: Myosin light chain kinase 2, skeletal/cardiac muscle (Homo sapiens) (UniProt Q9H1R3); details: Compound concentration 1000.0 nM
[26] = target: Myosin-IIIa (Homo sapiens) (UniProt Q8NEV4); details: Compound concentration 1000.0 nM
[27] = target: Phosphatidylinositol 4,5-bisphosphate 3-kinase catalytic subunit beta isoform (Homo sapiens) (UniProt P42338); details: Compound concentration 1000.0 nM
[28] = target: Phosphatidylinositol 5-phosphate 4-kinase type-2 beta (Homo sapiens) (UniProt P78356); details: Compound concentration 1000.0 nM
[29] = target: Rho-associated protein kinase 1 (Homo sapiens) (UniProt Q13464); details: Compound concentration 1000.0 nM
[30] = target: Ribosomal protein S6 kinase alpha-4 (Homo sapiens) (UniProt O75676); details: Compound concentration 1000.0 nM
[31] = target: Ribosomal protein S6 kinase alpha-1 (Homo sapiens) (UniProt Q15418); details: Compound concentration 1000.0 nM
[32] = target: Serine/threonine-protein kinase Sgk2 (Homo sapiens) (UniProt Q9HBY8); details: Compound concentration 1000.0 nM
Chain of Serine/threonine-protein kinase Sgk2 (Homo sapiens) (Q9HBY8 whole entry): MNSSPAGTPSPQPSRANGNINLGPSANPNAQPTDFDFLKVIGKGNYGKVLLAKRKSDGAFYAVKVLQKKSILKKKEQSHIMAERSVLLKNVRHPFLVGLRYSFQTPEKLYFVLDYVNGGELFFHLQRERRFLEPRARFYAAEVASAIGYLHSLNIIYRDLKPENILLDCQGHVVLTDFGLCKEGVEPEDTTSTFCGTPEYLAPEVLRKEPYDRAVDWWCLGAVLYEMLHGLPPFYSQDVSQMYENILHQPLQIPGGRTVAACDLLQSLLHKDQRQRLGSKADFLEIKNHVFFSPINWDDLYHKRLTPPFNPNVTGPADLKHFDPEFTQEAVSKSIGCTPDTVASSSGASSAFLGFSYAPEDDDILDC

[33] = target: Tyrosine-protein kinase receptor Tie-1 (Homo sapiens) (UniProt P35590); details: Compound concentration 1000.0 nM
[34] = target: Non-receptor tyrosine-protein kinase TNK1 (Homo sapiens) (UniProt Q13470); details: Compound concentration 1000.0 nM
[35] = target: Activated CDC42 kinase 1 (Homo sapiens) (UniProt Q07912); details: Compound concentration 1000.0 nM
[36] = target: Vascular endothelial growth factor receptor 2 (Homo sapiens) (UniProt P35968); details: Compound concentration 1000.0 nM
[37] = target: Phosphatidylinositol 3-kinase catalytic subunit type 3 (Homo sapiens) (UniProt Q8NEB9); details: Compound concentration 1000.0 nM
[38] = target: Wee1-like protein kinase (Homo sapiens) (UniProt P30291); details: Compound concentration 1000.0 nM
[39] = target: Serine/threonine-protein kinase WNK2 (Homo sapiens) (UniProt Q9Y3S1); details: Compound concentration 1000.0 nM
[40] = target: Serine/threonine-protein kinase WNK3 (Homo sapiens) (UniProt Q9BYP7); details: Compound concentration 1000.0 nM
[41] = target: Serine/threonine-protein kinase 32C (Homo sapiens) (UniProt Q86UX6); details: Compound concentration 1000.0 nM
Chain of Serine/threonine-protein kinase 32C (Homo sapiens) (Q86UX6 whole entry): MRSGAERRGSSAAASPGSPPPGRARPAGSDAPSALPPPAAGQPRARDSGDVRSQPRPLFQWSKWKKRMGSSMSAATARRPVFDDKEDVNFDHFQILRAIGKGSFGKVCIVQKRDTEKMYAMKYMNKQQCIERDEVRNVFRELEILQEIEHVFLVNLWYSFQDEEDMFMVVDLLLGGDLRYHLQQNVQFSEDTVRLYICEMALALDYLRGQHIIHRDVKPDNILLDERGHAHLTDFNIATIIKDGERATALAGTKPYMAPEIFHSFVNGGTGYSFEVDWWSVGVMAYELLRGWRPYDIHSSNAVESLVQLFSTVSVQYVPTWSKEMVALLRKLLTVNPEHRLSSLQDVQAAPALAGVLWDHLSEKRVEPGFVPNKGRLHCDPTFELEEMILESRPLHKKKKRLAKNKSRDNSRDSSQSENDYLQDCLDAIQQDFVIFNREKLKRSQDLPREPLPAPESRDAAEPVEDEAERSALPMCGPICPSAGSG

[42] = target: Serine/threonine-protein kinase 25 (Homo sapiens) (UniProt O00506); details: Compound concentration 1000.0 nM
Chain of Serine/threonine-protein kinase 25 (Homo sapiens) (O00506 whole entry, looked up): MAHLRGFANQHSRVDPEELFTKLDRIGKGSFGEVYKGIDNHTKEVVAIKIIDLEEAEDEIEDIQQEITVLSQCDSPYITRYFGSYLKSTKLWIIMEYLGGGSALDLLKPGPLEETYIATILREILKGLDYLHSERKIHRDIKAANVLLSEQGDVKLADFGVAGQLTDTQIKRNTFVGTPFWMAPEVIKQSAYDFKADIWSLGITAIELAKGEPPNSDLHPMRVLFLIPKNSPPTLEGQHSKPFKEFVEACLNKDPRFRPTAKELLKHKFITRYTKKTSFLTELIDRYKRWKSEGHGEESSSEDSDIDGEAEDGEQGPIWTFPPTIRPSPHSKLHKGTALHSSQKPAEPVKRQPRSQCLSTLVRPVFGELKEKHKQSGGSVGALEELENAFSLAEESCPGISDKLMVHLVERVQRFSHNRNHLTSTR

[43] = target: 5-hydroxytryptamine receptor 3A (Homo sapiens) (UniProt P46098); details: Compound concentration 10.0 uM
Rattus norvegicus = species on record: Rattus norvegicus; details: Compound concentration 10.0 uM
[44] = target: Sigma non-opioid intracellular receptor 1 (Homo sapiens) (UniProt Q99720); details: Compound concentration 10.0 uM

SMILES: Cc1nc(N2CC[C@@H](O)C2)ncc1-c1cc(C(F)(F)F)cc2[nH]ncc12 [TP-004]
- residual activity [1]: 70%
- residual activity [2]: 100%
- residual activity [3]: 60%
- residual activity [4]: 81%
- residual activity [5]: 100%
- residual activity [6]: 83%
- residual activity [7]: 99%
- residual activity [8]: 87%
- residual activity [9]: 100%
- residual activity [10]: 85%
- residual activity [11]: 90%
- residual activity [12]: 86%
- residual activity [13]: 100%
- residual activity [14]: 54%
- residual activity [15]: 54%
- residual activity [16]: 61%
- residual activity [17]: 72%
- residual activity [18]: 26%
- residual activity [19]: 100%
- residual activity [20]: 75%
- residual activity [21]: 74%
- residual activity [22]: 74%
- residual activity [23]: 100%
- residual activity [24]: 85%
- residual activity [25]: 100%
- residual activity [26]: 100%
- residual activity [27]: 60%
- residual activity [28]: 100%
- residual activity [29]: 91%
- residual activity [30]: 84%
- residual activity [31]: 100%
- residual activity [32]: 88%
- residual activity [33]: 91%
- residual activity [34]: 100%
- residual activity [35]: 90%
- residual activity [36]: 53%
- residual activity [37]: 63%
- residual activity [38]: 73%
- residual activity [39]: 41%
- residual activity [40]: 67%
- residual activity [41]: 86%
- residual activity [42]: 100%
- inhibition [43]: 6.06%
- inhibition (Rattus norvegicus): 1.57%
- inhibition [44]: 45.5%
